Tests used:
NOD mice [1] = conditions: cited from earlier work
mice = conditions: mouse, in vivo
From the text: In our animal study where we used IFA with human insulin B-chain or with human GAD65 protein, the mice were carefully observed for any adverse effect.

NOD mice [2] = experiment: Histological insulitis grading of pancreases of vaccinated NOD mice; type: in vivo; conditions: antigen in IFA; for mean insulitis score: 0-4 scale, pancreases at the time of adoptive transfer (9 weeks of age)
Method: Histological studies were performed on the pancreases of the vaccinated mice at the time of adoptive transfer.

NOD scid/scid mice = experiment: Adoptive transfer of splenocytes from vaccinated NOD mice into NOD scid/scid mice; type: in vivo; conditions: for effect on incidence of diabetes in NOD scid/scid adoptive transfer model (in words): antigen in IFA; for scid/scid recipient mice that became diabetic: antigen in IFA sc. to NOD donors at 3, 5 and 7 weeks, splenocytes cotransferred with untreated NOD splenocytes, by the 75th day after adoptive transfer, 16 mice/group
Method: To test the efficacy of autoantigens in IFA, NOD mice were vaccinated with human recombinant GAD65 (300 μg/mice) in IFA (total volume 0.1 ml), human insulin B-chain (20.1 μg/mice) in IFA (total volume 0.1 ml) and sham protein (Lysozyme, 200 μg/mice) in IFA (total volume 0.1 ml) sc. in the inguinal areas at 3, 5 and 7 weeks of age. At 9 weeks of age the treated mice were sacrificed and their splenocytes (1.0×10^7 cells) were cotransfered with splenocytes from 9 weeks old untreated NOD mice (1.0×10^7 cells) into 9-11 weeks old NOD scid/scid mice (16 mice/group; total 2.0×10^7 cells/mice). Control group received splenocytes (2.0×10^7 cells/mice) from untreated NOD mice.

human = conditions: pilot human trial; Keller et al. 1993; cited from earlier work

Row | Substance | mean insulitis score (NOD mice [2]) | effect on incidence of diabetes in NOD scid/scid adoptive transfer model (in words) (NOD scid/scid mice) | scid/scid recipient mice that became diabetic (NOD scid/scid mice) | other results
1 | GAD65: Human recombinant GAD65, 585 amino acid β-cell autoantigen (SEQ ID NO:2), given in IFA | 1.31 | significantly reduces the incidence of diabetes | 4/16 | Th1/Th2 balance (NOD mice [1]; nasal administration, Tian et al. 1996): change in Th1/Th2 balance in favor of Th2 ‘protective’ cells response; adverse effects, general and local (mice): well tolerated without any detectable side effects; effect on insulitis in NOD mice (in words) (NOD mice [2]): reduced insulitis
2 | Insulin: β-cell specific major protein, moderately immunogenic when used alone | – | – | – | development of diabetes mellitus (human): delaying the development of diabetes mellitus
3 | human recombinant insulin B-chain: Literature recombinant human insulin B-chain given in IFA (Ramiya et al.) [reference compound] | – | – | – | cytokine pattern in NOD mice islets (NOD mice [1]; in IFA, Ramiya et al. 1996): Th2 cytokine pattern
4 | Lysozyme [reference compound] | 2.64 | not effective | all | –

From patent US20060183670A1, “Autoantigen composition” (priority 2001, published 2006)
